Measured values: patent US20240245717A1, “ANTIVIRAL COMPOUNDS, COMPOSITIONS, AND USES THEREOF” (priority 2022, published 2024)
Several values for one entry are separate records, joined by “and”; a condition that tells them apart may be missing. Equal values may be shown once.

What was measured:
SARS-CoV-2 WAS-Calu-3 = test system: SARS-CoV-2 WAS-Calu-3; set-up: species or system Golden Syrian Hamsters; settings: hamster, in vivo
[1] = test system: SARS-CoV-2 isolate Hong Kong/VM20001061/2020; assay: microbe, parasite or virus in culture; format: cell-based; set-up: % of control: dose or concentration left out as unconfirmed; settings: 48 hours
[2] = test system: Pseudovirus rVSV-SARS-CoV-2; assay: microbe, parasite or virus in culture; format: cell-based; settings: for IC50: Pseudovirus, Vero, 24 h, read-out: NT50

## CCCCOP(=O)(O)OC[C@H]1O[C@@H](n2cc(C)c(=O)[nH]c2=O)C[C@@H]1OP(=O)(O)OCCCC [Nu-3, butyl-phosphate-5′-thymidine-3′-phosphate-butyl]
SARS-CoV-2 WAS-Calu-3
  body weight of infected, treated hamsters: began to regain body weight
  viral titers from harvested lungs: did not show any measurable viral particles, with the exception of one hamster

## CCCCOP(=O)(O)OC[C@H]1O[C@@H](n2ccc(N)nc2=O)C[C@@H]1OP(=O)(O)OCCCC [Nu-8, ((2R,3S,5R)-5-(4-amino-2-oxopyrimidin-1(2H)-yl)-3-((butoxyoxidophosphor-yl)oxy)tetrahydrofuran-2-yl)methyl butyl phosphate]
SARS-CoV-2 WAS-Calu-3
  body weight of infected, treated hamsters: began to regain body weight
  viral titers from harvested lungs: no virus detected

## CCCCOP(=O)(O)OC[C@H]1O[C@@H](n2ccc(N)nc2=O)[C@H](OC)[C@@H]1OP(=O)(O)OCCCC [Nu-10, ((2R,3R,4R,5R)-5-(4-amino-2-oxopyrimidin-1(2H)-yl)-3-((butoxy(hydroxy)phosphoryl)oxy)-4-methoxytetrahydrofuran-2-yl) methyl butyl hydrogen phosphate]
[1]
  % of control: 3% and 8%
[1]; Severe acute respiratory syndrome coronavirus 2, HEK-293T, 3.12 mg/ml
  inhibition at 3120 µg/mL: 97%
[2]
  neutralization of SARS CoV-2 infection in vitro: neutralize SARS CoV-2 infection in vitro
  IC50: 21.8 mg/mL

## CCCCOP(=O)(O)OC[C@H]1O[C@@H](n2cnc3c(N)ncnc32)[C@H](OC)[C@@H]1OP(=O)(O)OCCCC [Nu-11, (2R,3R,4R,5R)-5-(6-aminopurin-9-yl)-3-((butoxy(hydroxy)phosphoryl)oxy)-4-methoxytetrahydrofuran-2-yl)methyl butyl hydrogen phosphate]
[2]
  neutralization of SARS CoV-2 infection in vitro: neutralize SARS CoV-2 infection in vitro
  IC50: 1.15 mg/mL
